pIC50: −log10 of the molar value.
Assays:
[1] = tested on: etoposide-treated IMR-90 cells; test: Etoposide-induced senescence model, resazurin cell viability (screen and dose-response); assay type: cell-based, human; conditions: for effect on Sncs and control cells versus DMSO: concentrations between 1.5 to 3 μM, 3 days
Summary of the method: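 IMR-90 fibroblasts made senescent with 50 μM etoposide for 2 days, then 4 days recovery before plating. Compounds at 10 μM or 1 μM final (screen) or three-fold dilutions (1% DMSO) for 3 days, then 0.15 mM resazurin 1 day, fluorescence 550/590 nm. Viability expressed as fraction of untreated controls; biological duplicates.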

[2] = tested on: late-passage IMR-90 cells; test: Replicative senescence model, resazurin cell viability; assay type: cell-based, human; conditions: early- versus late-passage IMR-90 cells
Description: Cell culture. Human lung fibroblast (IMR-90) cells were obtained from ATCC (CCL-186) and passaged less than 10 times (less than 30 population doublings) for all experiments described in this example, with the exception of high-passage cells used in the model of replicative senescence (see the section on Replicative senescence below). Cells were cultured in growth media comprising Eagle's Minimum Essential Medium (EMEM: ATCC 30-2003) supplemented with 10% fetal bovine serum (FBS: Thermo Fisher 16140071) and 1% penicillin-streptomycin (Thermo Fisher 15070063). Cells were incubated in a humidity-controlled incubator at 37° C., with 5% CO2. Cells were detached using trypsin-EDTA (0.05%; Gibco 25300120).
Cells were then plated as described below.
Chemical screening. For all screening experiments. 99 μL of cells were plated into each well of a 96-well clear flat-bottom, black polystyrene tissue-culture-treated plate (Corning 3904) at a density of ˜10+ cells/well. Plates were incubated overnight for adhesion. The day after plating. […] After an additional 1 day of incubation, the fluorescence excitation/emission at 550/590 nm was read using a SpectraMaxR M3 plate reader and manufacturer software (SoftMax Pro R 6). […]
Calculation of cellular viability values in dose-response curves. […] For each sample, the fluorescence intensity value was normalized by the mean of two untreated control values. […]

[3] = tested on: HepG2 cells; test: Cytotoxicity against HepG2 cells (resazurin); assay type: cell-based, human; conditions: 3 days treatment, curve-fitting, two biological replicates
Description: Measuring cytotoxicity against HepG2 and HEK293 cells. Cytotoxicity in human embryonic kidney (HEK293) and liver carcinoma (HepG2) cells was assayed as above using a resazurin assay. Cells were obtained from ATCC (ATCC CRL-1573 and HB-8065), passaged <10 times, and grown in Dulbecco's modification of Eagle's Medium (DMEM: Corning 10^−013-CV) supplemented with 10% FBS and 1% penicillin-streptomycin. 99 μL of cells were plated into each well of a 96-well clear flat-bottom, black polystyrene tissue-culture-treated plate at a density of ˜10+ cells/well, and plates were incubated overnight for adhesion. The day after plating. 1 μL of each compound, prepared as two-fold serial dilutions of 5 mM stock solutions in DMSO, was added to each well. Cells were incubated for 3 days, after which resazurin was added to each well to a final concentration of 0.15 mM. After an additional 1 day of incubation, the fluorescence excitation/emission at 550/590 nm was read using a SpectraMax M3 plate reader. Experiments were performed in biological duplicate. IC50 values were determined by normalizing with respect to the fluorescence intensity values of untreated control cells on day 3, as described in Calculation of cellular viability values in dose-response curves above.

[4] = tested on: Salmonella typhimurium TA100; test: Genotoxicity assay (Ames 384-ISO test); assay type: cell-based; conditions: 100 μM
Description: Genotoxicity assay. An Ames 384-ISO test (6041-1S) from Environmental Bio-Detection Products, Inc, was used following the manufacturer's instructions. Briefly. Salmonella typhimurium TA100 was grown overnight (16-18 h) at 37° C., with shaking at 300 rpm and treated with the provided exposure media and compound samples at the final concentrations indicated. Treatment with the provided 4-nitroquinoline 1-oxide (4NQO), a mutagen, was used as a positive control. Cells were then added to the provided reversion solution, and each sample was split into 48 wells of 384-well plates. Plates were incubated at 37° C., for 2 days, after which the number of revertant (yellow-colored) wells corresponding to each sample was counted. […] An overnight bacterial culture was diluted 1:10.000 in LB medium (Becton Dickinson 244620) and plated using 99 μL working volumes into the wells of a clear flat-bottom 96-well plate. One μL of two-fold dilutions of each test compound in DMSO, starting from a final concentration of 500 μM, was added across wells, and plates were sealed and incubated overnight at 37° C., to determine bacterial growth.

[5] = target: Bcl-XL (Homo sapiens, UniProt Q07817); test: Bcl-XL TR-FRET; assay type: binding
Bcl-XL, sequence (Q07817 whole entry): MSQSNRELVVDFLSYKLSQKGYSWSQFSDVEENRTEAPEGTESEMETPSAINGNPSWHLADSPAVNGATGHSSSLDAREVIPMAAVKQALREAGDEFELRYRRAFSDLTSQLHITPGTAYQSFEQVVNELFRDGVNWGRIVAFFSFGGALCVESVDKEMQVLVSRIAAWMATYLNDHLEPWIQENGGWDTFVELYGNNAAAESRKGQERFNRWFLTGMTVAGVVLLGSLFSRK

[6] = target: BRD4 (Homo sapiens, UniProt O60885); test: BRD4 inhibition; assay type: biochemical
[7] = target: Mcl-1 (Homo sapiens, UniProt Q07820); test: Mcl-1 TR-FRET; assay type: binding
Mcl-1, sequence (Q07820 whole entry, species assumed): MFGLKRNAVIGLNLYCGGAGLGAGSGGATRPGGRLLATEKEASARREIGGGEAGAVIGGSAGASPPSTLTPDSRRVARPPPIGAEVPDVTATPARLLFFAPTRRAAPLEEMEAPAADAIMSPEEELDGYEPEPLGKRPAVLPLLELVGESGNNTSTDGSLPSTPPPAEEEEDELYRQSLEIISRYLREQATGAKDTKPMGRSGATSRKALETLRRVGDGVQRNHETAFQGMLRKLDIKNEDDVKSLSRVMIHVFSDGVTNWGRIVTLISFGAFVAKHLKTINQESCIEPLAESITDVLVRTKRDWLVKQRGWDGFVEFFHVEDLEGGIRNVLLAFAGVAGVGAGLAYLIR

[8] = ratio of IC50 values for vehicle- and etoposide-treated IMR-90 cells, 3 days treatment

Row | SMILES | effect on Sncs and control cells versus DMSO [1] | Therapeutic Index (TI) [1, 8] | selectivity against late-passage Sncs compared with ABT-737 [2] | pIC50 [3] | reversion of bacterial cultures (mutagenic potential) [4] | pIC50 [5] | pIC50 [6] | pIC50 ([3]; Homo sapiens, HepG2, 72 h) | pIC50 [7] | Therapeutic Index (TI) ([1]; etoposide-induced senescence model, ratio of IC50 values between etoposide- and DMSO-treated IMR-90 fibroblasts)
1 | O=C(Nc1ccc(S(=O)(=O)Nc2ncccn2)cc1)c1ccc(-c2ccccc2)cc1 [BRD-K20733377] | selective elimination of Sncs and no difference in the viabilities of control cells | 8.3 | similarly selective | 4.15 | did not induce significant reversion | ~6.00 | ~5.00 | – | – | –
2 | COc1ccc(C(=O)Nc2ccc3nc(SCC(=O)Nc4ccccc4F)sc3c2)cc1OC [compound 6] | selective elimination of Sncs and no difference in the viabilities of control cells | – | – | – | did not induce significant reversion | – | – | 3.38 | ≤ 4.00 | –
3 | Cc1ccccc1C(=O)Nc1ccc2nc(SCC(=O)Nc3ccccc3)sc2c1 [compound 19] | selective elimination of Sncs and no difference in the viabilities of control cells | 4.7 | less | – | did not induce significant reversion | – | – | 3.42 | – | +++ (compounds with a TI of >5 were labeled as +++)

Source: US20260097022A1, “COMPOUNDS AND USES THEREOF” (Integrated Biosciences, Inc., priority 2023, published 2026)
